According to paper PMC9146896, “Uracil as a Zn-Binding Bioisostere of the Allergic Benzenesulfonamide in the Design of Quinoline–Uracil Hybrids as Anticancer Carbonic Anhydrase Inhibitors” (Pharmaceuticals, 2022):
Values joined by “and” are separate entries in the source; they are usually repeats but may differ in a detail not shown here. Equal entries are not always repeated. Where two headings read alike, the source gives them in different places.

Assays:
[1] = target: T1, hCA IX (Homo sapiens, UniProt Q16790); design: method as in PMID 34681794; settings: cited from earlier work
[2] = target: T2, hCA XII (Homo sapiens, UniProt O43570); design: method as in PMID 34681794; settings: cited from earlier work
[3] = tested on: breast cancer cell line (MCF-7); test: Antiproliferative activity, MTT assay under hypoxic conditions; settings: Homo sapiens, MCF7, read-out: Cytotoxicity IC50 MCF7
[4] = tested on: lung cancer cell line (A549); test: as above; type: cell-based; settings: Homo sapiens, read-out: Cytotoxicity IC50 A549
[5] = tested on: Bcl-2; test: Assessment of apoptotic marker levels: Bcl-2 in MCF-7; type: cell-based
Excerpt: (§1) The two cytoplasmic proteins, B-cell lymphoma protein 2 (Bcl-2) and its associated X protein (Bax), are essential for apoptosis in normal cells. Bax is a promoter and Bcl-2 is an inhibitor of apoptosis. Thus, the effect of 10d and 10l on apoptotic markers Bax and Bcl-2 in a breast cancer cell line (MCF-7) and a lung cancer cell line (A549) has been estimated.

[6] = tested on: Bax; test: Assessment of apoptotic marker levels: Bax in MCF-7; type: cell-based
Excerpt: as §1

[7] = tested on: Bcl-2; test: Assessment of apoptotic marker levels: Bcl-2 in A549; type: cell-based
Excerpt: as §1

[8] = tested on: Bax; test: Assessment of apoptotic marker levels: Bax in A549; type: cell-based
Excerpt: as §1

[9] = target: T3, hCA I (Homo sapiens, UniProt P00915); test: Carbonic anhydrase inhibition, colorimetric method (BioVision CA Inhibitor Screening Kit)
[10] = target: T4, hCA II (Homo sapiens, UniProt P00918); test: as above
[11] = target: T1, hCA IX; test: as above; settings: for Selectivity index I/IX: hCA IX over hCA I; for Selectivity index II/IX: hCA IX over hCA II
[12] = target: T2, hCA XII; test: as above; settings: for Selectivity index I/XII: hCA XII over hCA I; for Selectivity index II/XII: hCA XII over hCA II
[13] = target: T3, hCA I; settings: range, quinoline-based sulfonamides; cited from earlier work
[14] = target: T4, hCA II; settings: range, quinoline-based sulfonamides; cited from earlier work

T2 sequence (O43570 25-354): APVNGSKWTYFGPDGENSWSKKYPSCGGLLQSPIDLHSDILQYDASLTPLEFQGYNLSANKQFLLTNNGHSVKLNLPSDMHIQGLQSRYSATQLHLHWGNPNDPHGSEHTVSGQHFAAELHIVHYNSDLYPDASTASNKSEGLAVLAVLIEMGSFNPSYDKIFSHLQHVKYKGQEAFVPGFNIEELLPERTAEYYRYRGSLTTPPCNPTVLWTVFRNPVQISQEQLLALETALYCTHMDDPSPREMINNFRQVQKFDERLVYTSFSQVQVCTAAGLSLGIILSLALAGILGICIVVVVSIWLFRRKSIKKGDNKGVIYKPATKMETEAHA
T3 sequence (P00915 whole entry): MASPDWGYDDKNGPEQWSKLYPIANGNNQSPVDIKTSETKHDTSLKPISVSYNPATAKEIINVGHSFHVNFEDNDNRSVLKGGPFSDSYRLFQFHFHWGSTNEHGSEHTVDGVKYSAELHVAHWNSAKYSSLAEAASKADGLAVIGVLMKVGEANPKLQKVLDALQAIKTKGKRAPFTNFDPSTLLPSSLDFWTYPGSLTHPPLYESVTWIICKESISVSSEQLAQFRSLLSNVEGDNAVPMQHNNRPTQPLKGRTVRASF

Structure (SMILES) | IC50 [3] | IC50 [4] | Bcl2 [5] | Bcl-2 level in comparison with the control [5] | Bax [6] | Bax level relative to the control [6] | Bcl2 [7] | Bcl-2 level in comparison with the control [7] | Bax [8] | Bax level relative to the control [8] | melting point | IC50 [9] | Ki [9] | IC50 [10] | Ki [10] | IC50 [11] | Ki [11] | Selectivity index I/IX [11] | Selectivity index II/IX [11] | IC50 [12] | also measured
NS(=O)(=O)c1cc(Nc2ccnc3ccc(Cl)cc23)ccc1Cl [Compound II] | – | – | – | – | – | – | – | – | – | – | – | – | – | – | – | – | – | – | – | – | Ki [1]: 18.6 nM and 19 nM; Ki [2]: 9 nM
Cn1c(N)c(/N=C/c2cc3ccccc3[nH]c2=O)c(=O)[nH]c1=O [Compound 10d, (E)-6-Amino-1-methyl-5-(((2-oxo-1,2-dihydroquinolin-3-yl)methylene)amino) pyrimidine-2,4(1H,3H)-dione] | 2870 ± 50 nM | 11800 ± 220 nM | 2.587 ± 0.03 nm/mL | downregulated | 403.1 ± 4.69 pg/mL | nearly six-fold | 2.841 ± 0.01 nm/mL | downregulated | 278.6 ± 9.14 pg/mL | nearly six-fold | 298 to 300 °C | 230 nM | 130 nM | 260 nM | 140 nM | 220 nM | 120 nM | 1.09 | 1.21 | 190 nM | Ki [12]: 110 nM; Selectivity index I/XII [12]: 1.24; Selectivity index II/XII [12]: 1.37
COc1ccc2[nH]c(=O)c(/C=N/c3c(N)n(C)c(=S)[nH]c3=O)cc2c1 [Compound 10l, (E)-3-(((6-Amino-1-methyl-4-oxo-2-thioxo-1,2,3,4-tetrahydropyrimidin-5-yl)imino)methyl)-6-methoxyquinolin-2(1H)-one] | 4080 ± 80 nM | 26100 ± 560 nM | 3.296 ± 0.09 nm/mL | downregulated | 337.2 ± 7.55 pg/mL | nearly six-fold | 4.605 ± 0.28 nm/mL | downregulated | 208.4 ± 4.07 pg/mL | nearly six-fold | 295 to 297 °C | 250 nM | 140 nM | 1880 nM | 1040 nM | 140 nM | 80 nM | 1.75 | 13.20 | 190 nM | Ki [12]: 110 nM; Selectivity index I/XII [12]: 1.29; Selectivity index II/XII [12]: 9.75
CCOC(=O)c1cnc2cc(Cl)c(F)cc2c1Nc1cccc(S(N)(=O)=O)c1 [Compound I] | – | – | – | – | – | – | – | – | – | – | – | – | – | – | – | – | – | – | – | – | Ki [13]: 966 to 9090 nM and 960 to 9090 nM; Ki [14]: 83 to 3590 nM
